# Experimental data published in PMC9542156, “Multivalent γ‐PGA‐Exendin‐4 Conjugates to Target Pancreatic β‐Cells” (Chembiochem, 2022).
# Assays:
# [1] = test system: GLP‐1R of Beta‐TC‐6 cells; assay: Affinity test (cell-based competitive flow cytometric receptor binding assay); conditions: 10 nM fluorescein-labelled Ex-4, 0.5 h, 310 K, compared to Ex4-PEG-MA
# Protocol: The binding ability of γ‐PGA‐Ex‐4 compounds to GLP‐1R expressed on β‐cells surface was examined in a competitive flow cytometric assay. This receptor binding assay was developed based on similar, receptor targeting studies, of Ex‐4 targeting[85] and folate targeting.[86] The relative competition capability to the target receptor, compared to Ex4‐PEG‐MA, was evaluated among γ‐PGA‐Ex‐4 conjugates at different degrees of functionalization. The obtained values were normalized with respect to the degree of functionalization of each bioconjugate, so that the comparison is not affected by the different amount of Ex‐4 molecules on each polymeric chain. GLP‐1R positive Beta‐TC‐6 cells were co‐incubated with fluorescein‐labelled Ex‐4 and the different Ex‐4 formulations, γ‐PGA‐Ex‐4‐1, γ‐PGA‐Ex‐4‐2, γ‐PGA‐Ex‐4‐3, and Ex4‐PEG‐MA or Ex‐4 as references. […]
# 5×10^5 cells were incubated with 10 nм fluorescein‐labelled Ex‐4 (Eurogentec) alone or together with the tested compounds at 310 K in RPMI supplemented with 10 % FBS. After 0.5 h the cells were washed with ice cold PBS and fluorescence of the cells was measured by flow cytometer (BD FACSCalibur). […] The binding ability of γ‐PGA‐Ex‐4 conjugates and peptides to the GLP‐1R positive cells was calculated based on the inhibition of the fluorescent Ex‐4 derived signal. […]
# [2] = test system: dipeptidyl peptidase‐IV (DPP‐IV); conditions: natural ligand GLP-1 rapidly degraded by DPP-IV; cited from earlier work
# Description: Type 2 diabetes is an unresolved pathology, related to genetic and environmental factors, which gradually decline the pancreatic islet functionality, finally culminating in a pathological phenomenon defined as hyperglycemia.[1] Pancreatic β‐cells take on a key role in the so‐called glucose homeostasis by secreting insulin and amylin.[2] A wide range of pharmacologic treatments have been developed, but none of them is considered the ultimate solution.[3] The classic target for diabetes 2 therapies is GLP‐1R, that stimulates insulin secretion upon interaction with its natural ligand, gluca ...
substance,measurement,setting,value
"HGEGTFTSDLSKQMEEE‐AVRLFIEWLys(PEG4‐Mal)KNGGPSSGAPPP S‐NH2 [Ex‐4‐PEG‐MA, exendin‐4(Lysine27‐PEG4‐maleimide), purchased from Caslo ApS]",Binding / affinity towards GLP‐1R positive β‐cells (in words),[1],still capable to bind GLP‐1R
glucagon‐like peptide 1 [GLP‐1],time to degradation by DPP‐IV,[2],< 2 min
